# Patent US20040045805A1, “Novel process for preparing and harvesting crystalline particles” (priority 2000, published 2004)
# Test: Malvern laser diffraction particle sizing
# Type: physicochemical
# Conditions: Malvern Mastersizer X; dispersant iso octane/lecithin 0.05% w/w; sonicated 3 minutes; one analysis per sample
# Procedure: Particles of Examples 1A and 1B were analysed using Malvern laser diffraction particle sizing. Instrument: Malvern Mastersizer X Lens: 45 mm Reverse Fourier Analysis: 0607 presentation code Dispersant: Iso Octane/Lecithin 0.05% w/w Pre dispersion: Sonicate for 3 minutes Obscuration: 10% to 16% One analysis per sample was carried out. The median particle size (D50), particle size at 90% undersize (D90) and particle size at 10% undersize (D10) were used as responses to characterise the medium, course, and fine particles.
D10 (particle size at 10% undersize) [μm],D50 (median particle size) [μm],D90 (particle size at 90% undersize) [μm],SMILES
1.77,3.65,7.24,"CCC(=O)O[C@]1(C(=O)SCF)[C@H](C)C[C@H]2[C@@H]3C[C@H](F)C4=CC(=O)C=C[C@]4(C)[C@@]3(F)[C@@H](O)C[C@@]21C [Example 1B, fluticasone propionate]"
1.01,2.68,5.93,"CCC(=O)O[C@]1(C(=O)SCF)[C@H](C)C[C@H]2[C@@H]3C[C@H](F)C4=CC(=O)C=C[C@]4(C)[C@@]3(F)[C@@H](O)C[C@@]21C [Example 1A, fluticasone propionate]"
